Ten compounds from patent US20110207723A1, “NOVEL FUSED AMINODIHYDROTHIAZINE DERIVATIVE” (EISAI R&D MANAGEMENT CO., LTD., priority 2008, published 2011) can be followed below.

The test system of this test is Aβ42 production. The test can be described thus: Quantification of Aβ peptide in culture of neurons from rat fetus brain (Aβ42 ELISA). The test is classed as cell-based. The note with it: Neuron, 72 h, rat primary neuronal culture (embryonic day 18 Wistar rat cerebral cortex), medium collected three days after addition of compound, read-out: Aβ42 production reducing effect IC50. The method, then:
Quantification of Aβ Peptide in Culture of Neurons from Rat Fetus Brain
Primary neuronal cultures were prepared from the cerebral cortex of embryonic day 18 Wistar rats (Charles River Japan, Yokohama, Japan). Specifically, the embryos were aseptically removed from pregnant rats under ether anesthesia. The brain was isolated from the embryo and immersed in an ice-cold L-15 medium (such as Invitrogen Corp. Cat #11415-064, Carlsbad, Calif., USA, or SIGMA L1518). The cerebral cortex was collected from the isolated brain under a stereoscopic microscope. The cerebral cortex fragments collected were enzymatically treated in an enzyme solution containing 0.25% trypsin (Invitrogen Corp. Cat #15050-065, Carlsbad, Calif., USA) and 0.01% DNase (Sigma D5025, St. Louis, Mo., USA) at 37° C. for 30 minutes to disperse the cells. Here, the enzymatic reaction was stopped by adding inactivated horse serum to the solution. The enzymatically treated solution was centrifuged at 1,500 rpm for five minutes to remove the supernatant. 5 to 10 ml of a medium was added to the resulting cell mass. Neurobasal medium (Invitrogen Corp. Cat #21103-049, Carlsbad, Calif., USA) supplemented with 2% B27 supplement (Invitrogen Corp. Cat #17504-044, Carlsbad, Calif., USA), 25 μM 2-mercaptoethanol (2-ME, WAKO Cat #139-06861, Osaka, Japan), 0.5 mM L-glutamine (Invitrogen Corp. Cat #25030-081, Carlsbad, Calif., USA), and Antibiotics-Antimycotics (Invitrogen Corp. Cat #15240-062, Carlsbad, Calif., USA) was used as the medium (Neurobasal/B27/2-ME). However, the above Neurobasal medium not supplemented with 2-ME (Neurobasal/B27) was used for the assay. The cells were redispersed by mild pipetting of the cell mass to which the medium was added. The cell dispersion was filtered through a 40-μm nylon mesh (Cell Strainer, Cat #35-2340, Becton Dickinson Labware, Franklin Lakes, N.J., USA) to remove the remaining cell mass, and thus a neuronal cell suspension was obtained. The neuronal cell suspension was diluted with the medium and then plated in a volume of 100 μl/well at an initial cell density of 5×10^5 cells/cm^2 in a 96-well polystyrene culture plate pre-coated with poly-L or D-lysine (Falcon Cat #35-3075, Becton Dickinson Labware, Franklin Lakes, N.J., USA coated with poly-L-lysine using the method shown below, or BIOCOAT™ cell environments Poly-D-lysine cell ware 96-well plate, Cat #35-6461, Becton Dickinson Labware, Franklin Lakes, N.J., USA). Poly-L-lysine coating was carried out as follows. 100 μg/ml of a poly-L-lysine (SIGMA P2636, St. Louis, Mo., USA) solution was aseptically prepared with a 0.15 M borate buffer (pH 8.5). […] of the solution was added to the 96-well polystyrene culture plate and incubated at room temperature for one or more hours or at 4° C. overnight or longer. Thereafter, the coated 96-well polystyrene culture plate was washed with sterile water four or more times, and then dried or rinsed with, for example, sterile PBS or medium, and used for cell plating. The plated cells were cultured in the culture plate at 37° C. in 5% CO2-95% air for one day. Then, the total amount of the medium was replaced with a fresh Neurobasal/B27/2-ME medium, and then the cells were cultured for further three days.
The drug was added to the culture plate on Day 4 of culture as follows. The total amount of the medium was removed from the wells, and 180 μl/well of Neurobasal medium not containing 2-ME and containing 2% B-27 (Neurobasal/B27) was added thereto. A solution of the test compound in dimethyl sulfoxide (hereinafter abbreviated as DMSO) was diluted with Neurobasal/B27 to a concentration 10-fold higher than the final concentration. 20 μl/well of the dilution was added to and sufficiently mixed with the medium. The final DMSO concentration was 1% or less. Only DMSO was added to the control group.
The cells were cultured for three days after addition of the compound, and the total amount of the medium was collected. […]
On the technique in general: ELISA stands for enzyme-linked immunosorbent assay.
As for `C[C@H]1SC(N)=N[C@@]2(c3cc(NC(=O)c4cnc(C(F)F)cn4)ccc3F)COCC[C@@H]12` (relative stereo) [Example 32, N-[3-((2R*,4aR*,8aS*)-2-amino-4-methyl-4,4a,5,6-tetrahydro-7-oxa-3-thia-1-azanaphthalen-8a-yl)-4-fluorophenyl]-5-difluoromethylpyrazine-2-carboxamide], the IC50 (as a rule, the concentration at which inhibition is half-maximal) turned out to be 3 nM.

Take `C[C@H]1C[C@H]2CSC(N)=N[C@@]2(c2cc(NC(=O)c3ccc(C#N)cn3)ccc2F)CO1` (relative stereo) [Example 7, N-[3-((4aR*,6S*,8aS*)-2-amino-6-methyl-4,4a,5,6-tetrahydro-7-oxa-3-thia-1-azanaphthalen-8a-yl)-4-fluorophenyl]-5-cyanopyridine-2-carboxamide]: the half-maximal inhibitory concentration (IC50) came to 0.7 nM.

For the compound `NC1=N[C@@]2(c3cc(NC(=O)c4cnc(OC(F)F)cn4)ccc3F)COCC[C@H]2CS1` (relative stereo) [Example 3, N-[3-((4aR*,8aS*)-2-amino-4,4a,5,6-tetrahydro-7-oxa-3-thia-1-azanaphthalen-8a-yl)-4-fluorophenyl]-5-difluoromethoxypyrazine-2-carboxamide], the IC50 is 1 nM.

As for `C[C@H]1COC[C@]2(c3cc(NC(=O)c4ccc(Cl)cn4)ccc3F)N=C(N)SC[C@H]12` (relative stereo) [Example 26, N-[3-((4aR*,5R*,8aS*)-2-amino-5-methyl-4,4a,5,6-tetrahydro-7-oxa-3-thia-1-azanaphthalen-8a-yl)-4-fluorophenyl]-5-chloropyridine-2-carboxamide], the IC50 came to 3 nM.

In the case of `NC1=N[C@@]2(c3cc(NC(=O)c4ccc(Cl)cn4)ccc3F)CO[C@@H](CO)C[C@H]2CS1` [Example 33, N-[3-((4aR,6R,8aS)-2-amino-6-hydroxymethyl-4,4a,5,6-tetrahydro-7-oxa-3-thia-1-azanaphthalen-8a-yl)-4-fluorophenyl]-5-chloropyridine-2-carboxamide], the IC50 turned out to be 1.1 nM.

As for `C[C@@H]1COC[C@]2(c3cc(NC(=O)c4ccc(C#N)cn4)ccc3F)N=C(N)SC[C@H]12` (relative stereo) [Example 24, N-[3-((4aR*,5S*,8aS*)-2-amino-5-methyl-4,4a,5,6-tetrahydro-7-oxa-3-thia-1-azanaphthalen-8a-yl)-4-fluorophenyl]-5-cyanopyridine-2-carboxamide], the IC50 was found to be 9 nM.

As for `NC1=N[C@@]2(c3cc(-c4cccnc4F)ccc3F)CO[C@@H](CF)C[C@H]2CS1` [Example 60, (4aR,6R,8aS)-8a-[2-fluoro-5-(2-fluoropyridin-3-yl)phenyl]-6-fluoromethyl-4,4a,5,6,8,8a-hexahydro-7-oxa-3-thia-1-azanaphthalen-2-ylamine], the IC50 was 32 nM.

`C[C@H]1COC[C@]2(c3cc(NC(=O)c4cnc(OC(F)F)cn4)ccc3F)N=C(N)SC[C@H]12` (relative stereo) [Example 28, N-[3-((4aR*,5R*,8aS*)-2-amino-5-methyl-4,4a,5,6-tetrahydro-7-oxa-3-thia-1-azanaphthalen-8a-yl)-4-fluorophenyl]-5-difluoromethoxypyrazine-2-carboxamide]: the IC50 came out at 1.4 nM.

`NC1=N[C@@]2(c3cc(-c4cccnc4F)cs3)COCC[C@H]2CS1` (racemic) [Example 65, (±)-(4aR*,8aR*1-8a-[4-(2-fluoropyridin-3-yl)-thiophen-2-yl]-4,4a,5,6,8,8a-hexahydro-7-oxa-3-thia-1-azanaphthalen-2-ylamine]: the IC50 is 370 nM.

For the compound `NC1=N[C@@]2(c3cc(NC(=O)c4ccc(Cl)cn4)ccc3F)CO[C@@H](CF)C[C@H]2CS1` [Example 45, N-[3-((4aR,6R,8aS)-2-amino-6-fluoromethyl-4,4a,5,6-tetrahydro-7-oxa-3-thia-1-azanaphthalen-8a-yl)-4-fluorophenyl]-5-chloropyridine-2-carboxamide], the IC50 amounted to 2 nM.
